Data as given in ChEMBL document CHEMBL4725299, “Design and synthesis of peptidic partial agonists of human neuromedin U receptor 1 with enhanced serum stability” (Bioorg Med Chem Lett, 2020).
pEC50: −log10 of the molar value. Blank lines part the entries; values can stand above or below the molecule they belong to. Starred links: 1 amine or outer side, 2 acyl side, 3 side chain; linkers in the order of their positions; H or OH if unused. Non-standard residues stand in square brackets, D forms with d. Residues, ends and D or L forms follow the SMILES beside them. *: point of attachment. X1 = O=C([C@H](Cc1ccc(Cc2ccccc2)cc1)N[*:1])[*:2]; Acetyl(2-naphthyloxy) = O=C(COc1ccc2ccccc2c1)*; Propanoyl(3-(3-pyridyl)) = O=C(CCc1cccnc1)*; Bip = N[C@@H](Cc1ccc(-c2ccccc2)cc1)C(=O)O; αMeW = C[C@](N)(Cc1c[nH]c2ccccc12)C(=O)O; 2Nal = N[C@@H](Cc1ccc2ccccc2c1)C(=O)O; Acetyl(2-thienyl) = O=C(Cc1cccs1)*; αMeF = C[C@](N)(Cc1ccccc1)C(=O)O; Tic = O=C(O)[C@@H]1Cc2ccccc2CN1

Legend:
Neuromedin-U receptor 1 [1] = target: T1, Neuromedin-U receptor 1 (Homo sapiens, UniProt Q9HB89); assay: Agonist activity at human NMUR1 expressed in CHO cells at 10 nM by calcium mobilization assay; format: cell-based; conditions: 0.01 µM
T1 sequence (Q9HB89 whole entry): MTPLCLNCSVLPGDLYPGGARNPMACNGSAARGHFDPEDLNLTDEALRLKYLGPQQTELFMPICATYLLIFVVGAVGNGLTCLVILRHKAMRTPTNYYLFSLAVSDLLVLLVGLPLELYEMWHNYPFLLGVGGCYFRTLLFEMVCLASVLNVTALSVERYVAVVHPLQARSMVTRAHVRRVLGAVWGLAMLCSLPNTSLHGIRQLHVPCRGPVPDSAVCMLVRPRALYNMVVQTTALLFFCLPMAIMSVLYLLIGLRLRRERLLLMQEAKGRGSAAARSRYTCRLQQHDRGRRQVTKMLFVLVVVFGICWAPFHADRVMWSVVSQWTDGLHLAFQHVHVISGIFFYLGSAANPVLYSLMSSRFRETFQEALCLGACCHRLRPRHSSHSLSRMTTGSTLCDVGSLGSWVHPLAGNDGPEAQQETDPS

Neuromedin-U receptor 2 [2] = target: T2, Neuromedin-U receptor 2 (Homo sapiens, UniProt Q9GZQ4); assay: Agonist activity at human NMUR2 expressed in CHO cells at 10 nM by calcium mobilization assay; format: cell-based; conditions: 0.01 µM
T2 sequence (Q9GZQ4 whole entry): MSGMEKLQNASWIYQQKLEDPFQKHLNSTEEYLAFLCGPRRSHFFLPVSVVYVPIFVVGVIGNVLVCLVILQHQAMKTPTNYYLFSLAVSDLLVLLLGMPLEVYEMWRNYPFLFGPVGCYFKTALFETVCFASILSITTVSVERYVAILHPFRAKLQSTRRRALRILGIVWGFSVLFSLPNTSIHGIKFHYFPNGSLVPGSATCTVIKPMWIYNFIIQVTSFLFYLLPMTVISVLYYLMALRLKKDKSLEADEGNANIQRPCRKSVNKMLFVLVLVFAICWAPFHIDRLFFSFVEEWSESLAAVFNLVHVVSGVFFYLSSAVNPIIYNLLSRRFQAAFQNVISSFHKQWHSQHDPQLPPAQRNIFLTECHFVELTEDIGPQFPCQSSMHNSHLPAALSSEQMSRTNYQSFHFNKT

Neuromedin-U receptor 1 [3] = target: T1, Neuromedin-U receptor 1; assay: Agonist activity at human NMUR1 expressed in CHO cells at 1000 nM by calcium mobilization assay relative to control; format: cell-based; conditions: read-out: Activity
[4] = Stability of the compound in 25% human serum assessed as residual rate at 50 uM incubated for 10 mins at 37 degreeC; format: ADME, cell-free; conditions: read-out: Stabilty
Neuromedin-U receptor 1 [5] = target: T1, Neuromedin-U receptor 1; assay: Agonist activity at human NMUR1 expressed in CHO cells at 100 nM by calcium mobilization assay relative to control; format: cell-based; conditions: read-out: Activity
Neuromedin-U receptor 1 [6] = target: T1, Neuromedin-U receptor 1; assay: Agonist activity at human NMUR1 expressed in CHO cells by calcium mobilization assay; format: cell-based
Neuromedin-U receptor 1 [7] = target: T1, Neuromedin-U receptor 1; assay: Agonist activity at human NMUR1 expressed in CHO cells at 10 nM by calcium mobilization assay relative to control; format: cell-based; conditions: read-out: Activity
Neuromedin-U receptor 1 [8] = target: T1, Neuromedin-U receptor 1; assay: Agonist activity at human NMUR1 expressed in CHO cells assessed as intrinsic activity at 10^-6 to 10^-12 M by calcium mobilization assay relative to control; format: cell-based; conditions: read-out: Intrinsic activity
[9] = Stability of the compound in 25% human serum assessed as intact residual rate at 50 uM incubated for 180 mins at 37 degreeC; format: ADME, cell-free; conditions: read-out: Stabilty
[10] = Drug metabolism in 25% human serum assessed as M1 metabolite formation at 50 uM incubated for 180 mins at 37 degreeC by HPLC analysis; format: ADME, cell-free; conditions: 3 h
[11] = Drug metabolism in 25% human serum assessed as M2 metabolite formation at 50 uM incubated for 180 mins at 37 degreeC by HPLC analysis; format: ADME, cell-free; conditions: 3 h
Neuromedin-U receptor 2 [12] = target: T2, Neuromedin-U receptor 2; assay: Agonist activity at human NMUR2 expressed in CHO cells by calcium mobilization assay; format: cell-based
[13] = Selectivity index, ratio of EC50 for agonist activity for human NMUR2 expressed in CHO cells to EC50 for agonist activity for human NMUR1 expressed in CHO cells by calcium mobilization assay; format: cell-based
Neuromedin-U receptor 2 [14] = target: T2, Neuromedin-U receptor 2; assay: Agonist activity at human NMUR2 expressed in CHO cells at 10 nM by calcium mobilization assay relative to control; format: cell-based; conditions: read-out: Activity
[15] = Half life of the compound in 25% human serum; format: ADME, cell-free
[16] = target: T3, Neuromedin-U receptor 1 (Homo sapiens) (UniProt Q9HB89); assay: Partial agonist activity at human NMUR1 expressed in CHO cells assessed as intrinsic activity at 10^-6 to 10^-12 M by calcium mobilization assay relative to control; format: functional, cell-based; conditions: filed as partial agonist, dose pM 1-1000000
T3 sequence (whole entry): T1 sequence (Q9HB89 whole entry)

Neuromedin-U receptor 1 [17] = target: T1, Neuromedin-U receptor 1; assay: Partial agonist activity at human NMUR1 expressed in CHO cells by calcium mobilization assay; format: functional, cell-based
Neuromedin-U receptor 2 [18] = target: T2, Neuromedin-U receptor 2; assay: Agonist activity at human NMUR2 expressed in CHO cells at 100 nM by calcium mobilization assay; format: cell-based; conditions: 0.1 µM
Neuromedin-U receptor 2 [19] = target: T2, Neuromedin-U receptor 2; assay: Agonist activity at human NMUR2 expressed in CHO cells at 1000 nM by calcium mobilization assay relative to control; format: cell-based; conditions: read-out: Activity

Compound: N=C(N)NCCC[C@H](NC(=O)[C@@H]1CCCN1C(=O)[C@H](CCCNC(=N)N)NC(=O)[C@H](Cc1ccc(Cc2ccccc2)cc1)NC(=O)[C@H](Cc1c[nH]c2ccccc12)NC(=O)Cc1cccs1)C(=O)N[C@@H](CC(N)=O)C(N)=O ({Acetyl(2-thienyl)}-W[X1]RPRN-NH2)
- remaining at 10 min, 50 µM [4]: 95%
- activity at 0.1 µM (Neuromedin-U receptor 1 [5]): 88%

Compound: N=C(N)NCCC[C@H](NC(=O)[C@@H]1CCCN1C(=O)[C@H](CCCNC(=N)N)NC(=O)[C@H](Cc1ccc(-c2ccccc2)cc1)NC(=O)[C@H](Cc1ccc2ccccc2c1)NC(=O)CCc1cccnc1)C(=O)N[C@@H](CC(N)=O)C(N)=O ({Propanoyl(3-(3-pyridyl))}-[2Nal][Bip]RPRN-NH2)
- pEC50 (Neuromedin-U receptor 1 [6]): 8.49
- activity at 0.01 µM (Neuromedin-U receptor 1 [7]): 59%
- Emax (Neuromedin-U receptor 1 [8]): 75%
- remaining at 3 h, 50 µM [9]: 84%
- Drug metabolism [10]: Metabolite_Detected
- Drug metabolism [11]: Metabolite_Detected
- pEC50 (Neuromedin-U receptor 2 [12]): < 6.00
- Ratio EC50 [13]: > 300

Compound: C[C@@](Cc1c[nH]c2ccccc12)(NC(=O)[C@H](Cc1c[nH]c2ccccc12)NC(=O)Cc1cccs1)C(=O)N[C@@H](CCCNC(=N)N)C(=O)N1CCC[C@H]1C(=O)N[C@@H](CCCNC(=N)N)C(=O)N[C@@H](CC(N)=O)C(N)=O ({Acetyl(2-thienyl)}-W[αMeW]RPRN-NH2)
- remaining at 3 h, 50 µM [9]: 39%

Compound: COc1ccc(C[C@H](NC(=O)[C@H](Cc2c[nH]c3ccccc23)NC(=O)Cc2cccs2)C(=O)N[C@@H](CCCNC(=N)N)C(=O)N2CCC[C@H]2C(=O)N[C@@H](CCCNC(=N)N)C(=O)N[C@@H](CC(N)=O)C(N)=O)cc1 ({Acetyl(2-thienyl)}-WY(Me)RPRN-NH2)
- remaining at 10 min, 50 µM [4]: 48%

Compound: N=C(N)NCCC[C@H](NC(=O)[C@@H]1CCCN1C(=O)[C@H](CCCNC(=N)N)NC(=O)[C@H](Cc1ccc(-c2ccccc2)cc1)NC(=O)[C@H](Cc1c[nH]c2ccccc12)NC(=O)Cc1cccs1)C(=O)N[C@@H](CC(N)=O)C(N)=O ({Acetyl(2-thienyl)}-W[Bip]RPRN-NH2)
- remaining at 10 min, 50 µM [4]: 95%
- activity at 0.1 µM (Neuromedin-U receptor 1 [5]): 88%
- Activity (Neuromedin-U receptor 2 [18]): Not Active
- remaining at 3 h, 50 µM [9]: 35%

Compound: C[C@@](Cc1ccccc1)(NC(=O)[C@H](Cc1ccc2ccccc2c1)NC(=O)CCc1cccnc1)C(=O)N[C@@H](CCCNC(=N)N)C(=O)N1CCC[C@H]1C(=O)N[C@@H](CCCNC(=N)N)C(=O)N[C@@H](CC(N)=O)C(N)=O ({Propanoyl(3-(3-pyridyl))}-[2Nal][αMeF]RPRN-NH2)
- Activity (Neuromedin-U receptor 1 [1]): Not Active
- Activity (Neuromedin-U receptor 2 [2]): Not Active

Second part, led by results:

- Activity (Neuromedin-U receptor 1 [1]): Not Active
- Activity (Neuromedin-U receptor 2 [2]): Not Active
- activity at 1 µM (Neuromedin-U receptor 1 [3]): 28%
Compound: N=C(N)NCCC[C@H](NC(=O)[C@@H]1CCCN1C(=O)[C@H](CCCNC(=N)N)NC(=O)[C@H](Cc1ccc(-c2ccccc2)cc1)NC(=O)COc1ccc2ccccc2c1)C(=O)N[C@@H](CC(N)=O)C(N)=O ({Acetyl(2-naphthyloxy)}-[Bip]RPRN-NH2)

- remaining at 10 min, 50 µM [4]: 35%
- activity at 0.01 µM (Neuromedin-U receptor 1 [7]): 61%
- activity at 0.01 µM (Neuromedin-U receptor 2 [14]): 19%
- half-life [15]: 20 min
- Intrinsic activity [16]: 71%
- pEC50 (Neuromedin-U receptor 1 [17]): 8.77
Compound: N=C(N)NCCC[C@H](NC(=O)[C@@H]1CCCN1C(=O)[C@H](CCCNC(=N)N)NC(=O)[C@H](Cc1ccccc1)NC(=O)[C@H](Cc1ccc2ccccc2c1)NC(=O)CCc1cccnc1)C(=O)N[C@@H](CC(N)=O)C(N)=O ({Propanoyl(3-(3-pyridyl))}-[2Nal]FRPRN-NH2)

- pEC50 (Neuromedin-U receptor 1 [6]): 7.52
- remaining at 10 min, 50 µM [4]: 64%
- activity at 0.01 µM (Neuromedin-U receptor 1 [7]): 30%
- Emax (Neuromedin-U receptor 1 [8]): 67%
- activity at 1 µM (Neuromedin-U receptor 2 [19]): 48%
Compound: N=C(N)NCCC[C@H](NC(=O)[C@@H]1CCCN1C(=O)[C@H](CCCNC(=N)N)NC(=O)[C@@H]1Cc2ccccc2CN1C(=O)COc1ccc2ccccc2c1)C(=O)N[C@@H](CC(N)=O)C(N)=O ({Acetyl(2-naphthyloxy)}-[Tic]RPRN-NH2)
- Ratio EC50 [13]: 30
